Test results as given in patent US20030232851A1, “Viral treatment” (The Procter & Gamble Company, priority 1999, published 2003).

Columns and labels:
HIV-1 cell line, CEMSKI = test: Long term in vitro study, CEMSKI, reverse transcriptase; assay type: cell-based; conditions: run through 242 days
Procedure: A microtiter-based reveres transcriptase (RT) reaction is utilized (Buckheit et al (1991) AIDS Research and Human Retroviruses 7:295-302). Tritiated thymidine triphosphate (NEN)(TTP) is resuspended in distilled water at 5 Ci/ml. Poly rA and oligo dT are prepared as a stock solution which is kept at −20° C. The RT reaction buffer is prepared fresh on a daily basis and consists of 125 μl 1M EGTA, 125 μl water, 125 μl Triton X-100, 50 μl Tris (pH 7.4), 50 μl 1 MDDT, and 40 μl 1M MgCl2. These three solutions are mixed together in a ratio of 1 part TTP, 2.5 parts poly rA:oligo dT, 2.5 parts reaction buffer and 4 parts distilled water. Ten microliters of this reaction mixture is placed in a round bottom microtiter place and 15 μl of virus containing supernatant is added and mixed. The plate is incubated at 37° C. for 60 minutes. […] Incorporated radioactivity is quantified utilizing a Wallac Microbeta scintillation counter. […]
The cell populations contain integrated copies of the HIV genome and constitutively produce HIV at relatively high levels or are latently infected and only produce virus after stimulation with phorbol esters, tumor necrosis factor or IL6 (U1 and ACH2). Reductions in virus products were observed when quantifying supernatant reverse transcriptase activity, […]

[1] = system: U937RF, a protease resistant strain; test: Long term in vitro study, U937RF, reverse transcriptase; assay type: cell-based, HIV
Procedure: (§1) A microtiter-based reveres transcriptase (RT) reaction is utilized (Buckheit et al (1991) AIDS Research and Human Retroviruses 7:295-302). Tritiated thymidine triphosphate (NEN)(TTP) is resuspended in distilled water at 5 Ci/ml. Poly rA and oligo dT are prepared as a stock solution which is kept at −20° C. The RT reaction buffer is prepared fresh on a daily basis and consists of 125 μl 1M EGTA, 125 μl water, 125 μl Triton X-100, 50 μl Tris (pH 7.4), 50 μl 1 MDDT, and 40 μl 1M MgCl2. These three solutions are mixed together in a ratio of 1 part TTP, 2.5 parts poly rA:oligo dT, 2.5 parts reaction buffer and 4 parts distilled water. Ten microliters of this reaction mixture is placed in a round bottom microtiter place and 15 μl of virus containing supernatant is added and mixed. The plate is incubated at 37° C. for 60 minutes. Following reaction, the reaction volume is spotted onto filter mats, washed 6 times for 5 minutes each in a 5% sodium phosphate buffer, 2 times for 1 minute each in distilled water, 2 times for 1 minute each in 70% ethanol, and then dried. The dried filter mat is placed in a plastic sample bag, Betaplate scintillation fluid is added and the bag is heat sealed. Incorporated radioactivity is quantified utilizing a Wallac Microbeta scintillation counter.
(§2) Acute infection of most established human cell lines with HIV-1 results in the eventual establishment of a constitutive virus-producing chronically infected cell line. The cells can be passaged for long periods of time in culture without loss of virus production. These cells may be utilized to evaluate the effects of anti-HIV compounds on syncytium formation or to evaluate the effects of anti-HIV compounds on levels of virus production from these cells. […] Each of the cells contains an integrated HIV genome or provirus. Chronically infected CEM, H9 and U937 cell lines have been prepared and cultured by Southern Research Institute, Frederick Md. and are available from them.
(§3) CEM-SS cells chronically infected with HIV isolate, for example SKI (CEM-SKI) are cultured in RPMI1640 tissue culture medium supplemented with 10% fetal bovine serum and antibiotics. […] CEM-SKI or other infected cells with no added drug are used as the control cells. Cells are allowed to grow to a density of approximately 1×10^6 cells/ml and are then passaged at a 1:10 dilution. […] The drug concentration in the flask is then increased two-fold and the cells maintained as above.
(§4) The cell populations contain integrated copies of the HIV genome and constitutively produce HIV at relatively high levels or are latently infected and only produce virus after stimulation with phorbol esters, tumor necrosis factor or IL6 (U1 and ACH2). Reductions in virus products were observed when quantifying supernatant reverse transcriptase activity,
A long term in vitro study of 2-(2-thienyl)-imidazolo [4,5-b]pyridine against U937RF, a protease resistant strain, was conducted at three different levels. The results with U937RF cells were reported at weekly intervals.

[2] = system: U937KN1272, a protease resistant strain; test: Long term in vitro study, U937KN1272, reverse transcriptase; assay type: cell-based, HIV
Procedure: as §1, §2, §3, §4
Similar results are obtained with U937KN1272, a protease resistant strain, reported below.

SMILES: c1csc(-c2nc3cccnc3[nH]2)c1 [2-(2-thienyl)-imidazolo [4,5-b]pyridine]
- reverse transcriptase data on continuation (in words) (HIV-1 cell line, CEMSKI): data remained consistent
- reverse transcriptase data ([1]; 7 μg/ml, day 4): 9711
- reverse transcriptase data ([1]; 7 μg/ml, day 11): 9974
- reverse transcriptase data ([1]; 7 μg/ml, day 18): 7462
- reverse transcriptase data ([1]; 7 μg/ml, day 25): 6952
- reverse transcriptase data ([1]; 7 μg/ml, day 32): 9161
- reverse transcriptase data ([1]; 7 μg/ml, day 39): 11155
- reverse transcriptase data ([1]; 7 μg/ml, day 46): 5178
- reverse transcriptase data ([1]; 7 μg/ml, day 53): 5878
- reverse transcriptase data ([1]; 7 μg/ml, day 60): 7586
- reverse transcriptase data ([1]; 7 μg/ml, day 67): 6678
- reverse transcriptase data ([1]; 7 μg/ml, day 71): 7299
- reverse transcriptase data ([1]; 7 μg/ml, day 74): 5927
- reverse transcriptase data ([1]; 7 μg/ml, day 88): 6996
- reverse transcriptase data ([1]; 7 μg/ml, day 95): 5624
- reverse transcriptase data ([1]; 7 μg/ml, day 102): 6002
- reverse transcriptase data ([1]; 7 μg/ml, day 109): 13890
- reverse transcriptase data ([1]; 15 μg/ml, day 4): 6397
- reverse transcriptase data ([1]; 15 μg/ml, day 11): 8051
- reverse transcriptase data ([1]; 15 μg/ml, day 18): 7932
- reverse transcriptase data ([1]; 15 μg/ml, day 25): 5229
- reverse transcriptase data ([1]; 15 μg/ml, day 32): 7277
- reverse transcriptase data ([1]; 15 μg/ml, day 39): 12487
- reverse transcriptase data ([1]; 15 μg/ml, day 46): 4703
- reverse transcriptase data ([1]; 15 μg/ml, day 53): 4960
- reverse transcriptase data ([1]; 15 μg/ml, day 60): 7952
- reverse transcriptase data ([1]; 15 μg/ml, day 67): 6417
- reverse transcriptase data ([1]; 15 μg/ml, day 71): 7016
- reverse transcriptase data ([1]; 15 μg/ml, day 74): 5903
- reverse transcriptase data ([1]; 15 μg/ml, day 88): 5887
- reverse transcriptase data ([1]; 15 μg/ml, day 95): 4602
- reverse transcriptase data ([1]; 15 μg/ml, day 102): 5229
- reverse transcriptase data ([1]; 15 μg/ml, day 109): 5718
- reverse transcriptase data ([1]; 30 μg/ml, day 4): 4841
- reverse transcriptase data ([1]; 30 μg/ml, day 11): 5389
- reverse transcriptase data ([1]; 30 μg/ml, day 18): 6988
- reverse transcriptase data ([1]; 30 μg/ml, day 25): 6061
- reverse transcriptase data ([1]; 30 μg/ml, day 32): 7572
- reverse transcriptase data ([1]; 30 μg/ml, day 39): 8558
- reverse transcriptase data ([1]; 30 μg/ml, day 46): 3065
- reverse transcriptase data ([1]; 30 μg/ml, day 53): 3643
- reverse transcriptase data ([1]; 30 μg/ml, day 60): 3445
- reverse transcriptase data ([1]; 30 μg/ml, day 67): 4368
- reverse transcriptase data ([1]; 30 μg/ml, day 71): 1498
- reverse transcriptase data ([1]; 30 μg/ml, day 74): 3639
- reverse transcriptase data ([1]; 30 μg/ml, day 88): 2697
- reverse transcriptase data ([1]; 30 μg/ml, day 95): 2442
- reverse transcriptase data ([1]; 30 μg/ml, day 102): 2815
- reverse transcriptase data ([1]; 30 μg/ml, day 109): 2095
- reverse transcriptase data on continuation (in words) ([1]; run through 242 days): data remained consistent
- reverse transcriptase data ([2]; 7 μg/ml, day 4): 3503
- reverse transcriptase data ([2]; 7 μg/ml, day 11): 10001
- reverse transcriptase data ([2]; 7 μg/ml, day 18): 14176
- reverse transcriptase data ([2]; 7 μg/ml, day 25): 14084
- reverse transcriptase data ([2]; 7 μg/ml, day 32): 9919
- reverse transcriptase data ([2]; 7 μg/ml, day 39): 8890
- reverse transcriptase data ([2]; 7 μg/ml, day 46): 9238
- reverse transcriptase data ([2]; 7 μg/ml, day 53): 9074
- reverse transcriptase data ([2]; 7 μg/ml, day 60): 7460
- reverse transcriptase data ([2]; 7 μg/ml, day 67): 7863
- reverse transcriptase data ([2]; 7 μg/ml, day 71): 8402
- reverse transcriptase data ([2]; 7 μg/ml, day 74): 8976
- reverse transcriptase data ([2]; 7 μg/ml, day 88): 8522
- reverse transcriptase data ([2]; 7 μg/ml, day 95): 9358
- reverse transcriptase data ([2]; 7 μg/ml, day 102): 9221
- reverse transcriptase data ([2]; 7 μg/ml, day 109): 8245
- reverse transcriptase data ([2]; 15 μg/ml, day 4): 2354
- reverse transcriptase data ([2]; 15 μg/ml, day 11): 7962
- reverse transcriptase data ([2]; 15 μg/ml, day 18): 11866
- reverse transcriptase data ([2]; 15 μg/ml, day 25): 13386
- reverse transcriptase data ([2]; 15 μg/ml, day 32): 10413
- reverse transcriptase data ([2]; 15 μg/ml, day 39): 8675
- reverse transcriptase data ([2]; 15 μg/ml, day 46): 8124
- reverse transcriptase data ([2]; 15 μg/ml, day 53): 7645
- reverse transcriptase data ([2]; 15 μg/ml, day 60): 5534
- reverse transcriptase data ([2]; 15 μg/ml, day 67): 4321
- reverse transcriptase data ([2]; 15 μg/ml, day 71): 5364
- reverse transcriptase data ([2]; 15 μg/ml, day 74): 6974
- reverse transcriptase data ([2]; 15 μg/ml, day 88): 4297
- reverse transcriptase data ([2]; 15 μg/ml, day 95): 5224
- reverse transcriptase data ([2]; 15 μg/ml, day 102): 5361
- reverse transcriptase data ([2]; 15 μg/ml, day 109): 7833
- reverse transcriptase data ([2]; 30 μg/ml, day 4): 1209
- reverse transcriptase data ([2]; 30 μg/ml, day 11): 4377
- reverse transcriptase data ([2]; 30 μg/ml, day 18): 6376
- reverse transcriptase data ([2]; 30 μg/ml, day 25): 9293
- reverse transcriptase data ([2]; 30 μg/ml, day 32): 9903
- reverse transcriptase data ([2]; 30 μg/ml, day 39): 6852
- reverse transcriptase data ([2]; 30 μg/ml, day 46): 2502
- reverse transcriptase data ([2]; 30 μg/ml, day 53): 2760
- reverse transcriptase data ([2]; 30 μg/ml, day 60): 2478
- reverse transcriptase data ([2]; 30 μg/ml, day 67): 1643
- reverse transcriptase data ([2]; 30 μg/ml, day 71): 4820
- reverse transcriptase data ([2]; 30 μg/ml, day 74): 3270
- reverse transcriptase data ([2]; 30 μg/ml, day 88): 3184
- reverse transcriptase data ([2]; 30 μg/ml, day 95): 2031
- reverse transcriptase data ([2]; 30 μg/ml, day 102): 3427
- reverse transcriptase data ([2]; 30 μg/ml, day 109): 1356
